Laboratory results taken from US20150094474A1, “AGRICULTURAL CHEMICALS” (Redx Pharma Ltd., priority 2012, published 2015).

Assays:
peas = experiment: Herbicidal bioassay, peas (% necrosis); assay type: in vivo
Procedure, shortened: (§1)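 Lolium perenne, barley, peas and Chinese cabbage at 2-4 true leaf stage sprayed simultaneously with a Potter tower, compounds in DMSO at six concentrations (0.05% to 0.0001%). Phytotoxicity scored as % necrosis per EPPO PP1/135 at set intervals; five replicates per treatment and species; DMSO and water controls.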

barley = experiment: Herbicidal bioassay, barley (% necrosis); assay type: in vivo
Procedure, shortened: as §1

CC(/C=N/O)Oc1ccc(Oc2ccc(C(F)(F)F)cn2)cc1 (stereo not drawn) [Compound 64, (1E)-2-[4-[[5-(Trifluoromethyl)-2-pyridyl]oxy]phenoxy]propanal oxime]
B (50%-80% necrosis): Sum of % necrosis in Peas (peas; Dose 0.000001, Day 21) | Sum of % necrosis in Peas (peas; Dose 0.00001, Day 14) | Sum of % necrosis in Peas (peas; Dose 0.0001, Day 14) | Sum of % necrosis in barley (barley; Dose 0.0005, Day 10) | Sum of % necrosis in barley (barley; Dose 0.0005, Day 14) | Sum of % necrosis in barley (barley; Dose 0.0005, Day 21)
A (over 80% necrosis): Sum of % necrosis in Peas (peas; Dose 0.00001, Day 21) | Sum of % necrosis in Peas (peas; Dose 0.0001, Day 21) | Sum of % necrosis in Peas (peas; Dose 0.0005, Day 21)
C (less than 50% necrosis): Sum of % necrosis in Peas (peas; Dose 0.000001, Day 0) | Sum of % necrosis in Peas (peas; Dose 0.000001, Day 1) | Sum of % necrosis in Peas (peas; Dose 0.000001, Day 3) | Sum of % necrosis in Peas (peas; Dose 0.000001, Day 7) | Sum of % necrosis in Peas (peas; Dose 0.000001, Day 10) | Sum of % necrosis in Peas (peas; Dose 0.000001, Day 14) | Sum of % necrosis in Peas (peas; Dose 0.000005, Day 0) | Sum of % necrosis in Peas (peas; Dose 0.000005, Day 1) | Sum of % necrosis in Peas (peas; Dose 0.000005, Day 3) | Sum of % necrosis in Peas (peas; Dose 0.000005, Day 7) | Sum of % necrosis in Peas (peas; Dose 0.000005, Day 10) | Sum of % necrosis in Peas (peas; Dose 0.000005, Day 14) | Sum of % necrosis in Peas (peas; Dose 0.000005, Day 21) | Sum of % necrosis in Peas (peas; Dose 0.00001, Day 0) | Sum of % necrosis in Peas (peas; Dose 0.00001, Day 1) | Sum of % necrosis in Peas (peas; Dose 0.00001, Day 3) | Sum of % necrosis in Peas (peas; Dose 0.00001, Day 7) | Sum of % necrosis in Peas (peas; Dose 0.00001, Day 10) | Sum of % necrosis in Peas (peas; Dose 0.00005, Day 0) | Sum of % necrosis in Peas (peas; Dose 0.00005, Day 1) | Sum of % necrosis in Peas (peas; Dose 0.00005, Day 3) | Sum of % necrosis in Peas (peas; Dose 0.00005, Day 7) | Sum of % necrosis in Peas (peas; Dose 0.00005, Day 10) | Sum of % necrosis in Peas (peas; Dose 0.00005, Day 14) | Sum of % necrosis in Peas (peas; Dose 0.00005, Day 21) | Sum of % necrosis in Peas (peas; Dose 0.0001, Day 0) | Sum of % necrosis in Peas (peas; Dose 0.0001, Day 1) | Sum of % necrosis in Peas (peas; Dose 0.0001, Day 3) | Sum of % necrosis in Peas (peas; Dose 0.0001, Day 7) | Sum of % necrosis in Peas (peas; Dose 0.0001, Day 10) | Sum of % necrosis in Peas (peas; Dose 0.0005, Day 0) | Sum of % necrosis in Peas (peas; Dose 0.0005, Day 1) | Sum of % necrosis in Peas (peas; Dose 0.0005, Day 3) | Sum of % necrosis in Peas (peas; Dose 0.0005, Day 7) | Sum of % necrosis in Peas (peas; Dose 0.0005, Day 10) | Sum of % necrosis in Peas (peas; Dose 0.0005, Day 14) | Sum of % necrosis in barley (barley; Dose 0.000001, Day 0) | Sum of % necrosis in barley (barley; Dose 0.000001, Day 1) | Sum of % necrosis in barley (barley; Dose 0.000001, Day 3) | Sum of % necrosis in barley (barley; Dose 0.000001, Day 7) | Sum of % necrosis in barley (barley; Dose 0.000001, Day 10) | Sum of % necrosis in barley (barley; Dose 0.000001, Day 14) | Sum of % necrosis in barley (barley; Dose 0.000001, Day 21) | Sum of % necrosis in barley (barley; Dose 0.000005, Day 0) | Sum of % necrosis in barley (barley; Dose 0.000005, Day 1) | Sum of % necrosis in barley (barley; Dose 0.000005, Day 3) | Sum of % necrosis in barley (barley; Dose 0.000005, Day 7) | Sum of % necrosis in barley (barley; Dose 0.000005, Day 10) | Sum of % necrosis in barley (barley; Dose 0.000005, Day 14) | Sum of % necrosis in barley (barley; Dose 0.000005, Day 21) | Sum of % necrosis in barley (barley; Dose 0.00001, Day 0) | Sum of % necrosis in barley (barley; Dose 0.00001, Day 1) | Sum of % necrosis in barley (barley; Dose 0.00001, Day 3) | Sum of % necrosis in barley (barley; Dose 0.00001, Day 7) | Sum of % necrosis in barley (barley; Dose 0.00001, Day 10) | Sum of % necrosis in barley (barley; Dose 0.00001, Day 14) | Sum of % necrosis in barley (barley; Dose 0.00001, Day 21) | Sum of % necrosis in barley (barley; Dose 0.00005, Day 0) | Sum of % necrosis in barley (barley; Dose 0.00005, Day 1) | Sum of % necrosis in barley (barley; Dose 0.00005, Day 3) | Sum of % necrosis in barley (barley; Dose 0.00005, Day 7) | Sum of % necrosis in barley (barley; Dose 0.00005, Day 10) | Sum of % necrosis in barley (barley; Dose 0.00005, Day 14) | Sum of % necrosis in barley (barley; Dose 0.00005, Day 21) | Sum of % necrosis in barley (barley; Dose 0.0001, Day 0) | Sum of % necrosis in barley (barley; Dose 0.0001, Day 1) | Sum of % necrosis in barley (barley; Dose 0.0001, Day 3) | Sum of % necrosis in barley (barley; Dose 0.0001, Day 7) | Sum of % necrosis in barley (barley; Dose 0.0001, Day 10) | Sum of % necrosis in barley (barley; Dose 0.0001, Day 14) | Sum of % necrosis in barley (barley; Dose 0.0001, Day 21) | Sum of % necrosis in barley (barley; Dose 0.0005, Day 0) | Sum of % necrosis in barley (barley; Dose 0.0005, Day 1) | Sum of % necrosis in barley (barley; Dose 0.0005, Day 3) | Sum of % necrosis in barley (barley; Dose 0.0005, Day 7)
